{"source": "paper PMC7575488", "about": "“Phase 1 dose-escalation study of a novel oral PI3K/mTOR dual inhibitor, LY3023414, in patients with cancer” (Investigational New Drugs, 2020)", "key": {"[1]": {"set-up": "method as in PMID 29636360", "conditions": "across a wide pH range; cited from earlier work"}, "[2]": {"test_system": "PI3K/mTOR kinase activity", "experiment": "Pharmacodynamics: fasting glucose and C-peptide change from baseline", "format": "in vivo, human", "conditions": "baseline to 4 h post dose", "method": "The primary objective of this study was to evaluate the tolerability and safety of LY3023414 up to the global recommended dose in Japanese patients with advanced malignancies. The secondary objectives were to evaluate PK and to document antitumor activity of LY3023414. The exploratory objective was to evaluate pharmacodynamic (PD) effects of LY3023414 on PI3K/mTOR kinase activity.\nFor PK assessment, blood samples were collected at pre dose and 0.5, 1, 2, 4, 8, and 12 h post dose on 2 occasions: (i) on Day 1 of Cycle 1 (single dose), and (ii) on Day 15 of Cycle 1 (multiple dose). For PD assessment, blood samples were collected at pre dose and 0.5, 1, 2, and 4 h post dose on 2 occasions: (i) on Day 1 of Cycle 1 (single dose), and (ii) on Day 15 of Cycle 1 (multiple dose).\nPharmacodynamic parameters (glucose and C-peptide) were analyzed for all patients. The mean percentage change from baseline against nominal time was provided for glucose and C-peptide."}, "[3]": {"experiment": "Phase 1 dose-escalation: tolerability and safety (DLTs, adverse events, CTCAE v4.0)", "format": "in vivo", "method": "This was a non-randomized, single-arm, open-label, Phase 1, dose-escalation study of oral LY3023414 in Japanese patients with advanced malignancies. A modified 3 + 3 dose-escalation method was used to evaluate the dose-limiting toxicity (DLT) of LY3023414. Enrollment of 3 patients and 6 patients were planned for dose level 1 (150 mg) and dose level 2 (200 mg), respectively. Dose-escalation decisions were made by agreement between investigators and the sponsor, with a consultation with the Safety Assessment Committee (SAC), as needed. If 2 patients experienced DLTs at any given dose, the sponsor examined safety data and consulted the SAC. Following consultation, the sponsor and investigators decided whether the dose was intolerable or additional patients were to be enrolled to the same or an intermediate dose level for further investigation. If ≥3 patients experienced DLTs at any given dose, the dose was considered intolerable for Japanese patients. No intrapatient dose escalation was allowed.\nThe study evaluated 2 dose levels, 150 mg or 200 mg LY3023414 monotherapy administered in the morning and evening, approximately 12 h apart. The cycle was of 21 days. […] No dose reductions were allowed during Cycle 1, unless a DLT was reported. Dose reductions were allowed in Cycle 2 and beyond at the discretion of the investigator. Patients were treated until a discontinuation criterion was met.\nTolerability and safety were assessed through clinical and laboratory evaluations at weekly intervals for the first 2 cycles and at least every 2 weeks thereafter. Adverse events (AEs) were graded according to the Common Terminology Criteria for Adverse Events Version 4.0 and coded to Medical Dictionary for Regulatory Activities preferred terms. All patients who received ≥1 dose of the study drug were included in the safety analysis.\nA DLT was defined as any AE during Cycle 1 which was possibly related to study treatment with LY3023414 and fulfilled any of the following main criteria: Grade ≥ 3 non-hematological toxicity (except nausea, vomiting, diarrhea, constipation, anorexia, skin rash, or asymptomatic electrolyte abnormality for ≤3 days and responsive to appropriate treatment; transient ≤5 days hyperglycemia; and transient ≤7 days mucositis), Grade 4 hematological toxicity of ≥7 days, Grade 3 thrombocytopenia with Grade ≥ 2 bleeding or febrile neutropenia, requirement of platelet or packed red blood transfusion, and any toxicities requiring dose omissions of >20% of intended doses in Cycle 1. The maximum tolerated dose was defined as the highest dose of LY3023414 not causing a DLT in more than 33% of patients."}, "tumor xenograft models": {"test_system": "tumor xenograft models", "conditions": "cited from earlier work"}, "[4]": {"conditions": "cited from earlier work"}, "advanced malignancies": {"test_system": "advanced malignancies", "experiment": "Antitumor activity, tumor response by RECIST v1.1", "format": "in vivo, human", "method": "Tumor response was assessed by computed tomography scans or magnetic resonance imaging according to RECIST v1.1 [18] at baseline and thereafter every 6 weeks until patients discontinued from the study. The assessment included all patients who received ≥1 dose of study drug."}, "CYP3A4": {"test_system": "CYP3A4", "set-up": "method as in PMID 29636360", "conditions": "drug-drug interaction analysis; cited from earlier work"}, "PI3K/mTOR": {"test_system": "PI3K/mTOR", "set-up": "method as in PMID 29636360", "conditions": "at doses ≥150 mg; cited from earlier work"}}}
{"smiles": "CO[C@@H](C)Cn1c(=O)n(C)c2cnc3ccc(-c4cncc(C(C)(C)O)c4)cc3c21", "note": "[LY3023414]", "values": [{"measurement": "Solubility", "setting": "[1]", "value": "good solubility"}, {"measurement": "C-peptide, mean percentage change from baseline", "setting": "[2]; 150 mg", "value": 106.0, "unit": "%"}, {"measurement": "Glucose, mean percentage change from baseline", "setting": "[2]; 150 mg", "value": 23.6, "unit": "%"}, {"measurement": "C-peptide, mean percentage change from baseline", "setting": "[2]; 200 mg", "value": 165.4, "unit": "%"}, {"measurement": "Glucose, mean percentage change from baseline", "setting": "[2]; 200 mg", "value": 24.7, "unit": "%"}, {"measurement": "Maximum tolerated dose", "setting": "[3]; BID dosing, Japanese patients", "value": 200, "unit": "mg"}, {"measurement": "Fatal events", "setting": "[3]; due to AEs or any other reason", "value": "no fatal events"}, {"measurement": "ALT increased, AE possibly related to study drug", "setting": "[3]; human, in vivo", "value": "3 (25.0) n (%)"}, {"measurement": "AST increased, AE possibly related to study drug", "setting": "[3]; human, in vivo", "value": "3 (25.0) n (%)"}, {"measurement": "Anemia, AE possibly related to study drug", "setting": "[3]; human, in vivo", "value": "5 (41.7) n (%)"}, {"measurement": "Appetite decreased, AE possibly related to study drug", "setting": "[3]; human, in vivo", "value": "7 (58.3) n (%)"}, {"measurement": "Blood creatinine increased, AE possibly related to study drug", "setting": "[3]; human, in vivo", "value": "4 (33.3) n (%)"}, {"measurement": "Diarrhea, AE possibly related to study drug", "setting": "[3]; human, in vivo", "value": "5 (41.7) n (%)"}, {"measurement": "Drug-related Grade 4 or 5 AEs", "setting": "[3]; human, in vivo", "value": "No drug-related Grade 4 or 5 AEs"}, {"measurement": "Fatigue, AE possibly related to study drug", "setting": "[3]; human, in vivo", "value": "4 (33.3) n (%)"}, {"measurement": "Hyperglycemia, AE possibly related to study drug", "setting": "[3]; human, in vivo", "value": "4 (33.3) n (%)"}, {"measurement": "Hypokalemia, AE possibly related to study drug", "setting": "[3]; human, in vivo", "value": "2 (16.7) n (%)"}, {"measurement": "Hypophosphatemia, AE possibly related to study drug", "setting": "[3]; human, in vivo", "value": "4 (33.3) n (%)"}, {"measurement": "Hypotension, AE possibly related to study drug", "setting": "[3]; human, in vivo", "value": "2 (16.7) n (%)"}, {"measurement": "Nausea, AE possibly related to study drug", "setting": "[3]; human, in vivo", "value": "8 (66.7) n (%)"}, {"measurement": "Patients with at least 1 dose adjustment", "setting": "[3]; human, in vivo", "value": 33.3, "unit": "%"}, {"measurement": "Patients with serious AEs", "setting": "[3]; human, in vivo", "value": 3, "unit": "patients"}, {"measurement": "Platelet count decreased, hematological AE possibly related to study drug", "setting": "[3]; human, in vivo", "value": "5 (41.7) n (%)"}, {"measurement": "Proteinuria, AE possibly related to study drug", "setting": "[3]; human, in vivo", "value": "4 (33.3) n (%)"}, {"measurement": "Pruritis, AE possibly related to study drug", "setting": "[3]; human, in vivo", "value": "3 (25.0) n (%)"}, {"measurement": "Pyrexia, AE possibly related to study drug", "setting": "[3]; human, in vivo", "value": "2 (16.7) n (%)"}, {"measurement": "Rash, AE possibly related to study drug", "setting": "[3]; human, in vivo", "value": "3 (25.0) n (%)"}, {"measurement": "Stomatitis, AE possibly related to study drug", "setting": "[3]; human, in vivo", "value": "9 (75.0) n (%)"}, {"measurement": "Vomiting, AE possibly related to study drug", "setting": "[3]; human, in vivo", "value": "4 (33.3) n (%)"}, {"measurement": "WBC count decreased, hematological AE possibly related to study drug", "setting": "[3]; human, in vivo", "value": "2 (16.7) n (%)"}, {"measurement": "Weight decreased, AE possibly related to study drug", "setting": "[3]; human, in vivo", "value": "2 (16.7) n (%)"}, {"measurement": "anemia, related AE Grade ≥ 3, patients", "setting": "[3]; human, in vivo", "value": 16.7, "unit": "%"}, {"measurement": "anemia, treatment-related AE, patients", "setting": "[3]; human, in vivo", "value": 41.7, "unit": "%"}, {"measurement": "decreased appetite, treatment-related AE, patients", "setting": "[3]; human, in vivo", "value": 58.3, "unit": "%"}, {"measurement": "decreased platelet count, treatment-related AE, patients", "setting": "[3]; human, in vivo", "value": 41.7, "unit": "%"}, {"measurement": "decreased weight, treatment-related AE, patients", "setting": "[3]; human, in vivo", "value": 16.7, "unit": "%"}, {"measurement": "decreased white blood cell count, treatment-related AE, patients", "setting": "[3]; human, in vivo", "value": 16.7, "unit": "%"}, {"measurement": "diarrhea, treatment-related AE, patients", "setting": "[3]; human, in vivo", "value": 41.7, "unit": "%"}, {"measurement": "fatigue, treatment-related AE, patients", "setting": "[3]; human, in vivo", "value": 33.3, "unit": "%"}, {"measurement": "hyperglycemia, related AE Grade ≥ 3, patients", "setting": "[3]; human, in vivo", "value": 16.7, "unit": "%"}, {"measurement": "hyperglycemia, treatment-related AE, patients", "setting": "[3]; human, in vivo", "value": 33.3, "unit": "%"}, {"measurement": "hypokalemia, treatment-related AE, patients", "setting": "[3]; human, in vivo", "value": 16.7, "unit": "%"}, {"measurement": "hypophosphatemia, related AE Grade ≥ 3, patients", "setting": "[3]; human, in vivo", "value": 16.7, "unit": "%"}, {"measurement": "hypophosphatemia, treatment-related AE, patients", "setting": "[3]; human, in vivo", "value": 33.3, "unit": "%"}, {"measurement": "hypotension, treatment-related AE, patients", "setting": "[3]; human, in vivo", "value": 16.7, "unit": "%"}, {"measurement": "increased alanine aminotransferase, treatment-related AE, patients", "setting": "[3]; human, in vivo", "value": 25.0, "unit": "%"}, {"measurement": "increased aspartate aminotransferase, treatment-related AE, patients", "setting": "[3]; human, in vivo", "value": 25.0, "unit": "%"}, {"measurement": "increased blood creatinine, treatment-related AE, patients", "setting": "[3]; human, in vivo", "value": 33.3, "unit": "%"}, {"measurement": "nausea, treatment-related AE, patients", "setting": "[3]; human, in vivo", "value": 66.7, "unit": "%"}, {"measurement": "proteinuria, treatment-related AE, patients", "setting": "[3]; human, in vivo", "value": 33.3, "unit": "%"}, {"measurement": "pruritus, treatment-related AE, patients", "setting": "[3]; human, in vivo", "value": 25.0, "unit": "%"}, {"measurement": "pyrexia, treatment-related AE, patients", "setting": "[3]; human, in vivo", "value": 16.7, "unit": "%"}, {"measurement": "rash, treatment-related AE, patients", "setting": "[3]; human, in vivo", "value": 25.0, "unit": "%"}, {"measurement": "stomatitis, related AE Grade ≥ 3, patients", "setting": "[3]; human, in vivo", "value": 16.7, "unit": "%"}, {"measurement": "stomatitis, treatment-related AE, patients", "setting": "[3]; human, in vivo", "value": 75.0, "unit": "%"}, {"measurement": "vomiting, treatment-related AE, patients", "setting": "[3]; human, in vivo", "value": 33.3, "unit": "%"}, {"measurement": "Dose-limiting toxicities (DLTs)", "setting": "[3]; in vivo", "value": "No DLTs"}, {"measurement": "Patients with at least 1 AE considered possibly related to the study drug", "setting": "[3]; in vivo", "value": "All patients"}, {"measurement": "Antitumor activity", "setting": "tumor xenograft models", "value": "potent antitumor activity"}, {"measurement": "Frequency of stomatitis", "setting": "[4]; 200-mg dose, global study", "value": 33.3, "unit": "%"}, {"measurement": "Disease control rate", "setting": "[4]; global Phase 1 study", "value": 34.0, "unit": "%"}, {"measurement": "Interstitial lung disease (ILD)", "setting": "[4]; global study", "value": "None of the patients experienced ILD"}, {"measurement": "Safe and tolerable dose as monotherapy (global recommended dose)", "setting": "[4]; human, in vivo", "value": "up to 200 mg"}, {"measurement": "Best overall response of stable disease", "setting": "advanced malignancies; 150 mg", "value": 3, "unit": "patients"}, {"measurement": "Best overall response of stable disease", "setting": "advanced malignancies; 200 mg", "value": 2, "unit": "patients"}, {"measurement": "Progressive disease as best response", "setting": "advanced malignancies; 200 mg BID", "value": 4, "unit": "patients"}, {"measurement": "Disease control rate", "setting": "advanced malignancies; 5 of 9 evaluable patients", "value": 55.6, "unit": "%"}, {"measurement": "Complete response (CR) or partial response (PR)", "setting": "advanced malignancies; 9 evaluable patients, RECIST v1.1", "value": "No complete response (CR) or partial response (PR)"}, {"measurement": "Best overall response of stable disease", "setting": "advanced malignancies; both dose levels, 9 evaluable patients", "value": 5, "unit": "patients"}, {"measurement": "Inhibition of the metabolic clearance of drugs metabolized through CYP3A4", "setting": "CYP3A4", "value": "weak inhibitor"}, {"measurement": "Target inhibition", "setting": "PI3K/mTOR", "value": "≥ 90", "unit": "%"}]}
